Assay results taken from paper PMC10490032, “From Monoamine Oxidase Inhibition to Antiproliferative Activity: New Biological Perspectives for Polyamine Analogs” (Molecules, 2023).

How the values were obtained:
[1] = test system: MAO activity in LN-229 lysates; test: MAO activity in LN-229 cell lysates, kynuramine assay; conditions: for Residual MAO activity in lysates: fraction of control
[2] = test system: LN-229 glioblastoma cell line; test: Inhibition growth assay, Trypan blue exclusion; format: cell-based, human; conditions: LN-229, 48 h of incubation, mean ± SD of five independent experiments in duplicate
Source text: On this basis, we investigated the antiproliferative effect of compounds 1–7 on LN-229, a human glioblastoma cell line. Compound 1 and the well-known antitumor drug doxorubicin were taken as references. […] The data in Table 3 support the lack of cytotoxicity of compound 1.
The LN-229 (human glioblastoma) was purchased from the American Type Culture Collection (ATCC) and cultured in DMEM (D2902, Sigma Chemical Co., St. Louis, MO, USA) supplemented with 3.5 g/L of glucose and 5% heat-inactivated fetal calf serum (FCS) (F7524, Sigma Chemical Co.), respectively. A total of 100 U/mL of penicillin, 100 μg/mL of streptomycin, and 0.25 μg/mL of amphotericin B (Sigma Chemical Co.) were added to the medium. Cells were cultured at 37 °C in a humidified atmosphere incubator containing 5% carbon dioxide in air.
Cells (3–6 × 10^4/well) were seeded into a 24-well cell culture plate; after 24 h, different concentrations of the test compounds or reference drug were added. After 48 h of incubation in standard conditions, the cell viability was determined by using a Trypan blue exclusion assay. Briefly, cells were detached by using a […] and 0.3 mM EDTA solution in PBS and stained with 0.1% Trypan blue solution in PBS. Unstained viable cells were immediately counted in a Burker chamber. The percentage of viable cells was calculated with respect to the untreated control culture. […] The goodness of the fit was expressed by the r^2 coefficient, and the best fit report included the analysis of variance corrected for the mean of the observations with the p values (p < 0.005 for all the tested compounds). Data are the means ± SD of at least five independent experiments in duplicate.

human VAP-1 [3] = biological target: T1, human VAP-1 (Homo sapiens, UniProt Q16853); parameters: Biothie Therapies Cor; (Turku, Finland), gift; method as in PMID 21858471, PMID 30829081; conditions: previous studies ref 35, 40; cited from earlier work
T1 sequence (Q16853 1-763): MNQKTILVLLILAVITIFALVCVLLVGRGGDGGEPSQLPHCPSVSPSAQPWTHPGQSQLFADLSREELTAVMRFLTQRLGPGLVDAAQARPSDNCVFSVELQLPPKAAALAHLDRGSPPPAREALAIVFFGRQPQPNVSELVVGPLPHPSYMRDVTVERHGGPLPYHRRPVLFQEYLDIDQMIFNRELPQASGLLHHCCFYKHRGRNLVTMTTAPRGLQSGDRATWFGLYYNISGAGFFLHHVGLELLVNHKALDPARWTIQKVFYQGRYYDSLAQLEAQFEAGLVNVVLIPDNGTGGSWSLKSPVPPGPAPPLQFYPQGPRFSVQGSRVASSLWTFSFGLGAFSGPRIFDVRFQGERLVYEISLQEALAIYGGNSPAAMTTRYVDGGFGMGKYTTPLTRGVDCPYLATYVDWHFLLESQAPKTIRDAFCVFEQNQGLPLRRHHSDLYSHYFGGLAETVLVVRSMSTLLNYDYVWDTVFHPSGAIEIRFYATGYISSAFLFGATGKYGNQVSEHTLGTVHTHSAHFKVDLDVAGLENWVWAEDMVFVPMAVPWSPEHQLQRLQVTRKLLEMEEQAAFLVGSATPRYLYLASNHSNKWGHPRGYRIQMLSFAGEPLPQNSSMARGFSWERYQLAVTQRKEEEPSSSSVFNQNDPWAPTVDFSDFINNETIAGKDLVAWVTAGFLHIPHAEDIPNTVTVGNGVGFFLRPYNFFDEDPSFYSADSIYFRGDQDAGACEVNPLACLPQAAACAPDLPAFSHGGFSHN

murine SMOX = murine SMOX (Mus musculus, UniProt Q99K82); parameters: made in house; host or cells: E. coli BL21 DE3; conditions: previous studies ref 35, 40; cited from earlier work
Sequence of murine SMOX (Q99K82 whole entry): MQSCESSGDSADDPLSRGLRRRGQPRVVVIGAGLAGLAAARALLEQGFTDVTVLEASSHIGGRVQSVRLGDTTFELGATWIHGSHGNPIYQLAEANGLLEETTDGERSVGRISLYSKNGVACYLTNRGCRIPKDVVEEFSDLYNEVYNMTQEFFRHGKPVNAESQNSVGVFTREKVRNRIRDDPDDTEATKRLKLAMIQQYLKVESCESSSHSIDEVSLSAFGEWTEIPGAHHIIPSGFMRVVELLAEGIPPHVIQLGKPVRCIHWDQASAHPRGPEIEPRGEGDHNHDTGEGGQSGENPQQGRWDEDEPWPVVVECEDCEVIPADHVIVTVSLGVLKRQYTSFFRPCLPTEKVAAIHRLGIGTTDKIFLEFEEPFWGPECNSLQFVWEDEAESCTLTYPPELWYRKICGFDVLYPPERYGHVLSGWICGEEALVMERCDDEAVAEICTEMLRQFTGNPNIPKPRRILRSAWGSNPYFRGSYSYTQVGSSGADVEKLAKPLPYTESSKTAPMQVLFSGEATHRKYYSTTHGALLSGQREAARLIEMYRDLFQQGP

human recombinant MAO A = biological target: T2, human recombinant MAO A (Homo sapiens, UniProt P21397); test: MAO A inhibition, kynuramine assay (4-hydroxyquinoline fluorescence); conditions: for Reversibility of MAO A inhibition: 5 μM compound for 25 min, diluted 50 times, 300 μM kynuramine; for Mode of inhibition of MAO A: Lineweaver–Burk plots / global fit; for Time dependence of MAO A inhibition (Vo/VI ratio): pre-incubation 0 to 30 min with 2.5 μM compound
T2 sequence (P21397 1-527): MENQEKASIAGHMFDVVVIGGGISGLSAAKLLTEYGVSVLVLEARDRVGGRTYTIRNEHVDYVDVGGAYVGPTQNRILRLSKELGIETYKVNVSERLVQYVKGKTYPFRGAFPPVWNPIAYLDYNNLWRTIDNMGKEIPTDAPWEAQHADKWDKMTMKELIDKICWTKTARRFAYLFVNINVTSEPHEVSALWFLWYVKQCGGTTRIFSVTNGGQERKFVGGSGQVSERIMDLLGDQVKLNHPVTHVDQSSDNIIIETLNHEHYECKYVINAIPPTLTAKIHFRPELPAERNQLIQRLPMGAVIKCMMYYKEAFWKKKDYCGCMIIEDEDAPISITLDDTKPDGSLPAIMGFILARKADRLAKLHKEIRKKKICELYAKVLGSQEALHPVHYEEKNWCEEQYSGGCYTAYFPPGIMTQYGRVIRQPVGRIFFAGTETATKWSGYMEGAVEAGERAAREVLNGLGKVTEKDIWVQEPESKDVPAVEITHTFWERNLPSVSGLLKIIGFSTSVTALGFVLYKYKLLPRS

human recombinant MAO B = biological target: T3, human recombinant MAO B (Homo sapiens, UniProt P27338); test: MAO B inhibition, kynuramine assay (4-hydroxyquinoline fluorescence); conditions: for Reversibility of MAO B inhibition: 5 μM compound for 25 min, diluted 50 times, 300 μM kynuramine; for Mode of inhibition of MAO B: Lineweaver–Burk plots / global fit (compound 7: Figure S1); for Time dependence of MAO B inhibition (Vo/VI ratio): pre-incubation 0 to 30 min with 2.5 μM compound
T3 sequence (P27338 1-520): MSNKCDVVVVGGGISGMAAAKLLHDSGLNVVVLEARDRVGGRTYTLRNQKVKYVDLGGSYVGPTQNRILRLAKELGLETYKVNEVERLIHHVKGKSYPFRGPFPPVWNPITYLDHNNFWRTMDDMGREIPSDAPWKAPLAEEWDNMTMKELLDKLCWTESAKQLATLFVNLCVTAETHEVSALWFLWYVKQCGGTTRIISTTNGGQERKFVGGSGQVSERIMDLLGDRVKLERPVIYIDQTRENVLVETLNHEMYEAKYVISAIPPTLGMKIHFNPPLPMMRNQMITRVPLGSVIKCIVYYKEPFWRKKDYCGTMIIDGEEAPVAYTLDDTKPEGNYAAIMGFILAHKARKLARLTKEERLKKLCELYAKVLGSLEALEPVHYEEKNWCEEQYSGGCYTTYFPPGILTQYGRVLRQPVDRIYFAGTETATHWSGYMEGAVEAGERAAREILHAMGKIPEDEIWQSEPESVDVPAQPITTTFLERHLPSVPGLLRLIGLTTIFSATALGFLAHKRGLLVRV

human VAP-1 [4] = biological target: T1, human VAP-1; test: VAP-1 amine oxidase activity, Amplex Red/horseradish peroxidase assay, benzylamine as substrate
[5] = inhibitor 5 nM, 15 min pre-incubation, 300 μM kynuramine
[6] = MAO A Ki, human recombinant MAO A, kynuramine 10 μM, from slope of Vo/VI vs compound concentration (1.25–40 μM), mean ± S.D.
[7] = MAO B Ki, human recombinant MAO B, kynuramine 10 μM, from slope of Vo/VI vs compound concentration (1.25–40 μM), mean ± S.D.
[8] = kynuramine 20 μM, compound 0.05–8 μM
[9] = KI (inhibition constant for the free enzyme) vs. MAO A, global fit, mixed model, inhibitor 0.25–2 μM, kynuramine varied
[10] = KIES (dissociation constant for the enzyme–substrate complex) vs. MAO A, global fit, mixed model, inhibitor 0.25–2 μM, kynuramine varied
[11] = KI (inhibition constant for the free enzyme) vs. MAO B, global fit, mixed model, inhibitor 0.25–2 μM, kynuramine varied
[12] = KIES (dissociation constant for the enzyme–substrate complex) vs. MAO B, global fit, mixed model, inhibitor 0.25–2 μM, kynuramine varied
[13] = inhibitor 0.2 μM, 20 μM kynuramine

C#CCN(C)CCCOc1ccc(Cl)cc1Cl [Clorgyline, clorgyline]
Residual MAO activity in lysates [1, 5]: 0.34 ± 0.10

COc1ccccc1CNCCCCCCNCCCCCCCCNCCCCCCNCc1ccccc1OC [Compound 1, methoctramine, reference compound]
GI50 ([2]; Homo sapiens): > 20000 nM | Inhibition of VAP-1 (human VAP-1 [3]): very poorly active | Inhibition of SMOX (murine SMOX): more effective than 2 | Ki (human recombinant MAO A; [6]): 290000 ± 60000 nM | Ki (human recombinant MAO B; [7]): 470000 ± 50000 nM

COc1ccccc1CNCCCCCCNc1ccc(CCc2ccc(NCCCCCCNCc3ccccc3OC)cc2)cc1 [Compound 4]
GI50 ([2]; Homo sapiens, LN-229, 48 h): < 1000 nM | GI50 [2]: 900 ± 200 nM | Effect on MAO activity in LN-229 lysates [1, 8]: not affected | Reversibility of MAO A inhibition (human recombinant MAO A): full reversibility | Ki (human recombinant MAO A; [9]): 620 ± 110 nM | Ki (human recombinant MAO A; [10]): 11000 ± 2000 nM | Mode of inhibition of MAO A (human recombinant MAO A): mainly competitive/mixed | Ki (human recombinant MAO A; [6]): 900 ± 200 nM | Time dependence of MAO A inhibition (Vo/VI ratio) (human recombinant MAO A; kynuramine 10 μM): no time dependence of the inhibition was observed | Reversibility of MAO B inhibition (human recombinant MAO B): full reversibility | Ki (human recombinant MAO B; [11]): 310 ± 50 nM | Ki (human recombinant MAO B; [12]): 15000 ± 2000 nM | Mode of inhibition of MAO B (human recombinant MAO B): mainly competitive/mixed | Ki (human recombinant MAO B; [7]): 300 ± 100 nM | Time dependence of MAO B inhibition (Vo/VI ratio) (human recombinant MAO B; kynuramine 10 μM): no time dependence of the inhibition was observed

COc1ccccc1CNCCCCCC(=O)Nc1ccc(CCc2ccc(NC(=O)CCCCCNCc3ccccc3OC)cc2)cc1 [Compound 5]
GI50 ([2]; Homo sapiens, LN-229, 48 h): < 1000 nM | GI50 [2]: 800 ± 100 nM | Effect on MAO activity in LN-229 lysates [1, 8]: concentration-dependent inhibition | Ki ([1]; read-out: Ki for MAO activity in LN-229 lysates, kynuramine 20 μM, compound 0.05–8 μM): 2000 nM | Reversibility of MAO A inhibition (human recombinant MAO A): full reversibility | Ki (human recombinant MAO A; [9]): 620 ± 90 nM | Ki (human recombinant MAO A; [10]): 14000 ± 2000 nM | Mode of inhibition of MAO A (human recombinant MAO A): mainly competitive/mixed | Ki (human recombinant MAO A; [6]): 600 ± 100 nM | Time dependence of MAO A inhibition (Vo/VI ratio) (human recombinant MAO A; kynuramine 10 μM): no time dependence of the inhibition was observed | Reversibility of MAO B inhibition (human recombinant MAO B): full reversibility | Ki (human recombinant MAO B; [11]): 160 ± 40 nM | Ki (human recombinant MAO B; [12]): 6000 ± 1000 nM | Mode of inhibition of MAO B (human recombinant MAO B): mainly competitive/mixed | Ki (human recombinant MAO B; [7]): 200 ± 100 nM | Time dependence of MAO B inhibition (Vo/VI ratio) (human recombinant MAO B; kynuramine 10 μM): no time dependence of the inhibition was observed | Ki (human VAP-1 [4]): ~50000 nM

COc1ccccc1CNCCCCCCN1Cc2ccc3c4c(ccc(c24)C1)CN(CCCCCCNCc1ccccc1OC)C3 [Compound 6]
GI50 ([2]; Homo sapiens, LN-229, 48 h): 2000 ± 900 nM | Ki (human recombinant MAO A; [6]): 37000 ± 4000 nM | Ki (human recombinant MAO B; [7]): 27000 ± 4000 nM

COc1ccccc1CNCCCCCCN1C(=O)c2ccc3c4c(ccc(c24)C1=O)C(=O)N(CCCCCCNCc1ccccc1OC)C3=O [Compound 7]
GI50 ([2]; Homo sapiens, LN-229, 48 h): 400 ± 100 nM | Ki (human recombinant MAO A; [6]): 3200 ± 200 nM | Mode of inhibition of MAO B (human recombinant MAO B): mainly competitive/mixed | Ki (human recombinant MAO B; [7]): 4200 ± 300 nM

COc1cccc2c1C(=O)c1c(O)c3c(c(O)c1C2=O)C[C@@](O)(C(=O)CO)C[C@@H]3O[C@H]1C[C@H](N)[C@H](O)[C@H](C)O1 [DOXO, doxorubicin, reference compound]
GI50 ([2]; Homo sapiens, LN-229, 48 h): 12 ± 4 nM

C#CCN(C)[C@H](C)Cc1ccccc1 [Deprenyl, deprenyl]
Residual MAO activity in lysates [1, 5]: 0.74 ± 0.04

COc1ccc2c(c1)[nH]c1c(C)nccc12 [Harmine, reference compound]
Residual MAO activity in lysates [1, 13]: 0.37 ± 0.08 | Ki (human recombinant MAO B; MAO B Ki, human recombinant MAO B, kynuramine 10 μM, […], mean ± S.D.): > 10000 nM

C#CCN(C)Cc1ccccc1 [Pargyline, pargyline]
Residual MAO activity in lysates ([1]; inhibitor 0.5 mM, 15 min pre-incubation, 300 μM kynuramine): 0.03 ± 0.02 | Residual activity in lysates after pre-incubation ([1]; pargyline pre-incubation 15 min, kynuramine 300 μM): about 3%

C[C@H](NCc1ccc(OCc2cccc(F)c2)cc1)C(N)=O [Safinamide]
Residual MAO activity in lysates [1, 13]: 0.66 ± 0.04

NCCC(=O)c1ccccc1N [kynuramine, reference compound]
Km ([1]; read-out: apparent KM in LN-229 lysates, substrate, Michaelis–Menten fit): 25 ± 3 µM | Km (human recombinant MAO B; read-out: KM for MAO B, substrate, human recombinant MAO B): 27 ± 4 µM
